Laboratory results as given in patent US11412737B2, “Mixtures of beflubutamid or optically enriched forms thereof with a second herbicide” (FMC Corporation, priority 2016, dated 2022).

Columns and labels:
Wild oat (AVEFA) [1] = experiment: pre-emergence test, weed control; format: in vivo, Avena fatua; settings: pre-emergent, 28 DAT
Description: (§1) Test compositions containing the test compounds were diluted with water to provide the appropriate test rate concentrations.
(§2) For pre-emergence testing, four disposable fiber flats (6 inch by 10 inch) for each rate of application of each herbicide solution were filled with top soil, to which seeds of each species were planted in furrows made by a template pressed on the top of the soil. The furrows were covered with soil after planting the seed and were watered well before application of the test compounds.
(§3) Fiber flats designated for treatment were placed in a spray chamber having a static platform and a movable sprayer and the height of the spray nozzle was 10.5 inches above the soil level. Once the sprayer was calibrated using water for spray volume of 30 gallons per acre, flats were sprayed with sprayer at a speed to receive a coverage equivalent of 30 gallons per acre. The application rates are those shown in the Tables below for the individual herbicidal solutions and the herbicide compositions of this invention. The pre-emergence flats were immediately placed in the greenhouse and watered lightly after treatment. Thereafter they were regularly watered and fertilized for the duration of the test.
(§4) The control of weeds was evaluated in each experimental test at 21 for wheat and 28 days after treatment (DAT) for all species. Data were analyzed using Minitab software at 95% confidence interval. The results, shown as an average of the replications, were compared with results observed in untreated control flats in the same tests. Percent control was determined by a method similar to the 0 to 100 rating system disclosed in “Research Methods in Weed Science,” 2nd ed., B. Truelove, Ed.; Southern Weed Science Society; Auburn University, Auburn, Ala., 1977. The rating system is as follows in Table 1.

Redrice (ORYSA) = experiment: post-emergence test, weed control; format: in vivo; settings: post-emergent, 28 DAT; BFL at 187.5 g, PYX at 90 g, combination of both
Description: as §1
(§5) For post-emergence testing, seeds of each species for each rate of application of each herbicide solution were planted in 7.5 cm×7.5 cm plastic pots filled with potting soil. The seeds were germinated and the resulting plants were allowed to grow in a greenhouse until they reached a growth stage, such as height, suitable for testing. Treatments were applied using compressed air in a track spray chamber at 30 gallons/acre (280 L/ha) using a TeeJet 8001E nozzle at 40 psi (2.76 bars). Pots of post-emergent treated plants were returned to the greenhouse and not watered for 24 hours after treatment. Thereafter they were regularly watered and fertilized for the duration of the test.
as §4

Hemp sesbania (SEHE8) = experiment: pre-emergence test, weed control; format: in vivo; settings: pre-emergent, 28 DAT; BFL at 187.5 g, PYX at 90 g, combination of both
Description: as §1, §2, §3, §4

Blackgrass (ALOMY) = experiment: pre-emergence test, weed control; format: in vivo; settings: pre-emergent, 28 DAT
Description: as §1, §2, §3, §4

Cheat grass (BROSE) = experiment: pre-emergence test, weed control; format: in vivo; settings: pre-emergent, 28 DAT, (+)-BFL >95% e.e.; rate g ai/ha by row: r6 62.5, r7 125, r8 62.5, r9 125, r10 222, r11 445, r12 22.5, r13 45, r14 62.5+62.5, r15 125+62.5, r16 62.5+125, r17 125+125, r18 62.5+222, r19 125+222, r20 62.5+445, r21 125+445, r22 62.5+22.5, r23 125+22.5, r24 62.5+45, r25 125+45
Description: as §1, §2, §3, §4

Yellow foxtail (SETLU) = experiment: pre-emergence test, weed control; format: in vivo; settings: pre-emergent, 28 DAT
Description: as §1, §2, §3, §4

Green foxtail (SETVI) [2] = experiment: post-emergence test, weed control; format: in vivo, Setaria viridis; settings: post-emergent, 28 DAT; BFL at 187.5 g, PYX at 90 g, combination of both
Description: as §1, §5, §4

Jimsonweed (DATST) = experiment: pre-emergence test, weed control; format: in vivo, Datura stramonium; settings: pre-emergent, 28 DAT; BFL at 187.5 g, PYX at 90 g, combination of both
Description: as §1, §2, §3, §4

Wild oat (AVEFA) [3] = experiment: post-emergence test, weed control; format: in vivo, Avena fatua; settings: post-emergent, 28 DAT; BFL at 187.5 g, PYX at 90 g, combination of both
Description: as §1, §5, §4

Common chickweed (STEME) [4] = experiment: post-emergence test, weed control; format: in vivo, Stellaria media; settings: post-emergent, 28 DAT; BFL at 187.5 g, PYX at 45 g, combination of both
Description: as §1
For post-emergence testing, seeds of each species for each rate of application of each herbicide solution were planted in 7.5 cm×7.5 cm plastic pots filled with potting soil. The seeds were germinated and the resulting plants were allowed to grow in a greenhouse until they reached a growth stage, such as height, suitable for testing. […] Pots of post-emergent treated plants were returned to the greenhouse and not watered for 24 hours after treatment. Thereafter they were regularly watered and fertilized for the duration of the test.
The control of weeds was evaluated in each experimental test at 21 for wheat and 28 days after treatment (DAT) for all species. […] The rating system is as follows in Table 1.

[5] = test system: Common lambsquarters (CHEAL); experiment: pre-emergence test, weed control; format: in vivo, Chenopodium album; settings: pre-emergent, 28 DAT, (+)-BFL >95% e.e.; rate g ai/ha by row: r6 62.5, r7 125, r8 62.5, r9 125, r10 222, r11 445, r12 22.5, r13 45, r14 62.5+62.5, r15 125+62.5, r16 62.5+125, r17 125+125, r18 62.5+222, r19 125+222, r20 62.5+445, r21 125+445, r22 62.5+22.5, r23 125+22.5, r24 62.5+45, r25 125+45
Description: as §1, §2, §3, §4

Green foxtail (SETVI) [6] = experiment: pre-emergence test, weed control; format: in vivo, Setaria viridis; settings: pre-emergent, 28 DAT
Description: as §1, §2, §3, §4

Palmer amaranth (AMAPA) = experiment: pre-emergence test, weed control; format: in vivo, Amaranthus palmeri; settings: pre-emergent, 28 DAT, (−)-BFL >95% e.e.; rate g ai/ha by row: r6 62, r7 125, r8 125, r9 250, r10 445, r11 890, r12 45, r13 90, r14 62+125, r15 125+125, r16 62+250, r17 125+250, r18 62+445, r19 125+445, r20 62+890, r21 125+890, r22 62+45, r23 125+45, r24 62+90, r25 125+90
Description: as §1, §2, §3, §4

Common chickweed (STEME) [7] = experiment: pre-emergence test, weed control; format: in vivo, Stellaria media; settings: pre-emergent, 28 DAT; BFL at 187.5 g, PYX at 90 g, combination of both
Description: as §1, §2
Fiber flats designated for treatment were placed in a spray chamber having a static platform and a movable sprayer and the height of the spray nozzle was 10.5 inches above the soil level. Once the sprayer was calibrated using water for spray volume of 30 gallons per acre, flats were sprayed with sprayer at a speed to receive a coverage equivalent of 30 gallons per acre. […]
The control of weeds was evaluated in each experimental test at 21 for wheat and 28 days after treatment (DAT) for all species. Data were analyzed using Minitab software at 95% confidence interval. […] Percent control was determined by a method similar to the 0 to 100 rating system disclosed in “Research Methods in Weed Science,” 2nd ed., B. Truelove, Ed.; Southern Weed Science Society; Auburn University, Auburn, Ala., 1977. […]

[8] = (+)-BFL >95% e.e., rate g ai/ha by row: r6 62.5, r7 125, r8 62.5, r9 125, r10 222, r11 445, r12 22.5, r13 45, r14 62.5+62.5, r15 125+62.5, r16 62.5+125, r17 125+125, r18 62.5+222, r19 125+222, r20 62.5+445, r21 125+445, r22 62.5+22.5, r23 125+22.5, r24 62.5+45, r25 125+45, 22.5 g ai/ha
[9] = (+)-BFL >95% e.e., rate g ai/ha by row: r6 62.5, r7 125, r8 62.5, r9 125, r10 222, r11 445, r12 22.5, r13 45, r14 62.5+62.5, r15 125+62.5, r16 62.5+125, r17 125+125, r18 62.5+222, r19 125+222, r20 62.5+445, r21 125+445, r22 62.5+22.5, r23 125+22.5, r24 62.5+45, r25 125+45, 45 g ai/ha
[10] = (−)-BFL >95% e.e., rate g ai/ha by row: r6 62, r7 125, r8 125, r9 250, r10 445, r11 890, r12 45, r13 90, r14 62+125, r15 125+125, r16 62+250, r17 125+250, r18 62+445, r19 125+445, r20 62+890, r21 125+890, r22 62+45, r23 125+45, r24 62+90, r25 125+90, 45 g ai/ha
[11] = (−)-BFL >95% e.e., rate g ai/ha by row: r6 62, r7 125, r8 125, r9 250, r10 445, r11 890, r12 45, r13 90, r14 62+125, r15 125+125, r16 62+250, r17 125+250, r18 62+445, r19 125+445, r20 62+890, r21 125+890, r22 62+45, r23 125+45, r24 62+90, r25 125+90, 90 g ai/ha
[12] = (−)-BFL >95% e.e., rate g ai/ha by row: r6 62, r7 125, r8 125, r9 250, r10 445, r11 890, r12 45, r13 90, r14 62+125, r15 125+125, r16 62+250, r17 125+250, r18 62+445, r19 125+445, r20 62+890, r21 125+890, r22 62+45, r23 125+45, r24 62+90, r25 125+90

For `Cn1nc(C(F)(F)F)c(CS(=O)(=O)C2=NOC(C)(C)C2)c1OC(F)F` [PYX, Pyroxasulfone], the “percentage of weed control, AVEFA” value (Wild oat (AVEFA) [1]; [8]) was 98%, the “percentage of weed control, AVEFA” value (Wild oat (AVEFA) [1]; [9]) was 96% and the “percentage of weed control, AVEFA” value (Wild oat (AVEFA) [1]; [10]) was 100%. For the same compound, the “percentage of weed control, AVEFA” value (Wild oat (AVEFA) [1]; [11]) was 99%, the “control of red rice” value (Redrice (ORYSA)) was 39% and the “control of hemp sesbania” value (Hemp sesbania (SEHE8)) was 67%. The “percentage of weed control, ALOMY” value (Blackgrass (ALOMY); (+)-BFL >95% e.e., rate g ai/ha by row: r6 62.5, r7 125, r8 62.5, r9 125, r10 222, r11 445, r12 22.5, r13 45, r14 62.5+62.5, r15 125+62.5, r16 62.5+125, r17 125+125, r18 62.5+222, r19 125+222, r20 62.5+445, r21 125+445, r22 62.5+22.5, r23 125+22.5, r24 62.5+45, r25 125+45) was 100%, the “percentage of weed control, ALOMY” value (Blackgrass (ALOMY); [10]) was 100% and the “percentage of weed control, ALOMY” value (Blackgrass (ALOMY); [11]) was 99%. For the same compound, the “percentage of weed control, BROSE” value (Cheat grass (BROSE)) was 100%, the “percentage of weed control, SETLU” value (Yellow foxtail (SETLU); [8]) was 99% and the “percentage of weed control, SETLU” value (Yellow foxtail (SETLU); [9]) was 100%. For the same compound, the “percentage of weed control, SETLU” value (Yellow foxtail (SETLU); [12]) was 100%, the “control of green foxtail” value (Green foxtail (SETVI) [2]) was 66% and the control of jimsonweed (Jimsonweed (DATST)) was 72%. The “control of wild oats” value (Wild oat (AVEFA) [3]) was 48%, the “control of common chickweed” value (Common chickweed (STEME) [4]) was 22% and the “percentage of weed control, CHEAL” value [5] was 100%. For the same compound, the “percentage of weed control, SETVI” value (Green foxtail (SETVI) [6]; [8]) was 97%, the “percentage of weed control, SETVI” value (Green foxtail (SETVI) [6]; [9]) was 99% and the “percentage of weed control, SETVI” value (Green foxtail (SETVI) [6]; [12]) was 99%. The “percentage of weed control, AMAPA” value (Palmer amaranth (AMAPA)) was 100% and the “control of common chickweed” value (Common chickweed (STEME) [7]) was 67%.
